According to patent US8420571B2, “Synergistic herbicidal composition containing fluroxypyr and cyhalofop, metamifop or profoxydim” (Dow AgroSciences, LLC, priority 2009, dated 2013):
“And” between values parts separate entries of the source, which are not always exact repeats. Identical values can stand only once.

Key:
Format in all cases: in vivo
[1] = tested on: Chinese sprangletop (Leptochloa chinensis; LEFCH); assay: Postemergence herbicidal activity of mixtures in the greenhouse, visual weed control; conditions: 21 DAA
Experimental: (§1) Evaluation of Postemergence Herbicidal Activity of Mixtures in the Greenhouse
(§2) Seeds of the desired test plant species were planted in 80% mineral soil/20% grit planting mixture, which typically has a pH of 7.2 and an organic matter content of about 2.9 percent, in plastic pots with a surface area of 128 square centimeters (cm^2). The growing medium was steam sterilized. The plants were grown for 7-19 days in a greenhouse with an approximate 14-hour (h) photoperiod which was maintained at about 29° C. during the day and 26° C. during the night. Nutrients and water were added on a regular basis and supplemental lighting was provided with overhead metal halide 1000-Watt lamps as necessary. The plants were treated with postemergence foliar applications when they reached the third to fourth true leaf stage. All treatments were applied using a randomized complete block trial design, with 4 replications per treatment.
(§3) Treatments consisted of the compounds as listed in Tables 1, 2, 4 and 5 with each compound applied alone and in combination. Formulated amounts of cyhalofop-butyl, metamifop, profoxydim and fluoroxypyr-meptyl ester, were placed in 60 milliliter (mL) glass vials and dissolved in a volume of 60 mL of a water solution containing Agri-dex crop oil concentrate in a 1% volume per volume (v/v) ratio. Compound requirements are based upon a 12 mL application volume at a rate of 187 liters per hectare (L/ha). Spray solutions of the mixtures were prepared by adding the stock solutions to the appropriate amount of dilution solution to form 12 mL spray solution with active ingredients in single and two way combinations. Formulated compounds were applied to the plant material with an overhead Mandel track sprayer equipped with 8002E nozzles calibrated to deliver 187 L/ha at a spray height of 18 inches ([…] (cm)) above average plant canopy.
(§4) The treated plants and control plants were placed in a greenhouse as described above and watered by sub-irrigation to prevent wash-off of the test compounds. Treatments were rated at 14 to 21 days after application as compared to the untreated control plants. Percent visual weed control was scored on a scale of 0 to 100 percent where 0 corresponds to no injury and 100 corresponds to complete kill.
(§5) Colby's equation was used to determine the herbicidal effects expected from the mixtures (Colby, S. R. Calculation of the synergistic and antagonistic response of herbicide combinations. Weeds 1967, 15, 20-22.).
(§6) The following equation was used to calculate the expected activity of mixtures containing two active ingredients, A and B: Expected=A+B−(A×B/100)
(§7) A=observed efficacy of active ingredient A at the same concentration as used in the mixture.
(§8) B=observed efficacy of active ingredient B at the same concentration as used in the mixture.

[2] = tested on: barnyardgrass (Echinochloa crus-galli; ECHCG); assay: as above
Experimental: as §1, §2, §3, §4, §5, §6, §7, §8

[3] = tested on: broadleaf signalgrass (Brachiaria platyphylla; BRAPP); assay: as above
Experimental: as §1, §2, §3, §4, §5, §6, §7, §8

[4] = tested on: giant foxtail (Setaria faberi; SETFA); assay: as above; conditions: 21 DAA, Table 2
Experimental: as §1, §2, §3, §4, §5, §6, §7, §8

[5] = tested on: winklegrass (Ischaemum rugosum; ISCRU); assay: as above; conditions: 14 DAA, Table 1
Experimental: as §1, §2, §3, §4, §5, §6, §7, §8

[6] = tested on: barnyardgrass (Echinochloa crus-galli; ECHCG); assay: Postemergence herbicidal activity of mixtures in the field (drill-seeded rice), visual weed control; conditions: 29-36 DAA, Table 3
Experimental: (§9) Evaluation of Postemergence Herbicidal Activity of Mixtures in the Field
(§10) Field trials were conducted in drill-seeded rice using standard herbicide small plot research methodology. Plots were typically 3×10 meters (m, width×length) in size with 4 replicates per treatment. The rice crop was grown using normal cultural practices for fertilization, seeding, watering, flooding and maintenance to ensure good growth of the crop and the weeds.
(§11) All treatments in the field trials were applied using a carbon dioxide (CO2) backpack sprayer calibrated to apply 187 L/ha spray volume. Commercially available products of cyhalofop-butyl and fluoroxypyr-meptyl were mixed in water at appropriately formulated product rates to achieve the desired rates based on a unit area of application (hectare) to achieve the desired application rates as shown. Treatments were rated at 29 to 36 days after application (DAA) as compared to the untreated control plants. Percent visual weed control was scored on a scale of 0 to 100 percent where 0 corresponds to no injury and 100 corresponds to complete kill.
(§12) All treatment results, both for the single product and mixtures, are an average of 4 replicates and the tank mix interactions are significant at the […] level using Tukey's T-test.
as §5, §6, §7, §8

[7] = tested on: tighthead sprangletop (Leptochloa panicoides; LEFPA); assay: as above; conditions: 29-36 DAA, Table 3
Experimental: as §9, §10, §11, §12, §5, §6, §7, §8

[8] = Metamifop 7.5 g ai/ha alone, 21 DAA, Table 4
[9] = Metamifop 15 g ai/ha alone, 21 DAA, Table 4
[10] = Fluroxypyr 50 g ae/ha alone, 21 DAA, Table 4
[11] = Fluroxypyr 70 g ae/ha alone, 14 DAA, Table 1
[12] = Fluroxypyr 100 g ae/ha alone, 21 DAA, Table 4
[13] = Fluroxypyr 200 g ae/ha alone, 21 DAA, Table 4

Compound: C[C@@H](Oc1ccc(Oc2nc3ccc(Cl)cc3o2)cc1)C(=O)N(C)c1ccccc1F [Metamifop, (2R)-2-[4-[(6-chloro-2-benzoxazolyl)oxy]-phenoxy]-N-(2-fluorophenyl)-N-methylpropanamide]
- % Control LEFCH Ob ([1]; Metamifop 7.5 g ai/ha alone, Table 4): 23%
- % Control LEFCH Ob ([1]; Metamifop 30 g ai/ha alone, Table 4): 88%
- % Control ECHCG Ob [2, 8]: 5%
- % Control ECHCG Ob [2, 9]: 33%
- % Control ECHCG Ob ([2]; Metamifop 30 g ai/ha alone, 21 DAA, Table 4): 74%
- % Control BRAPP Ob [3, 8]: 25%
- % Control BRAPP Ob [3, 9]: 54%

Compound: CCCC(=NOCC(C)Oc1ccc(Cl)cc1)C1=C(O)CC(C2CCCSC2)CC1=O (stereo not shown) [Profoxydim, 2-[1-[[2-(4-chlorophenoxy)propoxy]imino]-butyl]-3-hydroxy-5-(tetrahydro-2H-thiopyran-3-yl)-2-cyclohexen-1-one]
- % Control LEFCH Ob ([1]; Profoxydim 25 g ai/ha alone, Table 5): 61%
- % Control LEFCH Ob ([1]; Profoxydim 50 g ai/ha alone, Table 5): 78%
- % Control ECHCG Ob ([2]; Profoxydim 25 g ai/ha alone, 21 DAA, Table 5): 54%

Compound: Nc1c(Cl)c(F)nc(OCC(=O)O)c1Cl [Fluroxypyr, [(4-amino-3,5-dichloro-6-fluoro-2-pyridinyl)oxy]acetic acid]
- % Control LEFCH Ob ([1]; Fluroxypyr 50 g ae/ha alone, Table 4): 6%
- % Control LEFCH Ob ([1]; Fluroxypyr 70 g ae/ha alone, Table 2): 28%
- % Control LEFCH Ob ([1]; Fluroxypyr 100 g ae/ha alone, Table 5): 41%
- % Control LEFCH Ob ([1]; Fluroxypyr 140 g ae/ha alone, Table 2): 5%
- % Control LEFCH Ob ([1]; Fluroxypyr 200 g ae/ha alone, Table 4): 41%
- % Control LEFCH Ob ([1]; Fluroxypyr 200 g ae/ha alone, Table 5): 48% and 49%
- % Control ECHCG Ob [2, 10]: 0%
- % Control ECHCG Ob ([2]; Fluroxypyr 50 g ae/ha alone, 21 DAA, Table 5): 0%
- % Control ECHCG Ob [2, 11]: 14%
- % Control ECHCG Ob [2, 12]: 11%
- % Control ECHCG Ob ([2]; Fluroxypyr 100 g ae/ha alone, 21 DAA, Table 5): 0%
- % Control ECHCG Ob ([2]; Fluroxypyr 140 g ae/ha alone, 14 DAA, Table 1): 9%
- % Control ECHCG Ob [2, 13]: 6%
- % Control ECHCG Ob ([2]; Fluroxypyr 200 g ae/ha alone, 21 DAA, Table 5): 5%
- % Control ECHCG Ob ([2]; Fluroxypyr 280 g ae/ha alone, 14 DAA, Table 1): 8%
- % Control BRAPP Ob [3, 10]: 5%
- % Control BRAPP Ob [3, 11]: 22%
- % Control BRAPP Ob [3, 12]: 1%
- % Control BRAPP Ob [3, 13]: 5%
- % Control SETFA Ob ([4]; Fluroxypyr 140 g ae/ha alone): 50%
- % Control ISCRU Ob ([5]; Fluroxypyr 140 g ae/ha alone): 15%
- % Control ECHCG Ob ([6]; Fluroxypyr 580 g ae/ha alone): 0%
- % Control LEFPA Ob ([7]; Fluroxypyr 190 g ae/ha alone): 0%
- % Control LEFPA Ob ([7]; Fluroxypyr 290 g ae/ha alone): 3%
- % Control LEFPA Ob ([7]; Fluroxypyr 580 g ae/ha alone): 0%

Compound: C[C@@H](Oc1ccc(Oc2ccc(C#N)cc2F)cc1)C(=O)O [Cyhalofop, (2R)-2-[4-(4-cyano-2-fluorophenoxy)phenoxy]-propanoic acid]
- % Control LEFCH Ob ([1]; Cyhalofop 63 g ae/ha alone, Table 2): 67%
- % Control ECHCG Ob ([2]; Cyhalofop 63 g ae/ha alone, 14 DAA, Table 1): 55%
- % Control ECHCG Ob ([2]; Cyhalofop 126 g ae/ha alone, 14 DAA, Table 1): 73%
- % Control BRAPP Ob ([3]; Cyhalofop 253 g ae/ha alone, 14 DAA, Table 1): 77%
- % Control SETFA Ob ([4]; Cyhalofop 63 g ae/ha alone): 82%
- % Control ISCRU Ob ([5]; Cyhalofop 126 g ae/ha alone): 15%
- % Control ECHCG Ob ([6]; Cyhalofop 262 g ae/ha alone): 67%
- % Control LEFPA Ob ([7]; Cyhalofop 262 g ae/ha alone): 33%
